In patent US20110151258A1, “PREPARATION OF RANOLAZINE” (DR. REDDY'S LABORATORIES LTD., priority 2008, published 2011):

Assays:
Format in all cases: physicochemical
[1] = Specific surface area and span by light scattering (Malvern method); details: for Specific surface area: method not stated at the place; for span: particle size distribution span
Text: (§1) In an embodiment, the present application provides a pharmaceutical composition comprising ranolazine having a specific surface area more than about 0.1 m^2/g, or more than about 0.5 m^2/g, or more than about 1 m^2/g, or more than about 2 m^2/g, or more than about 3 m^2/g, or more than about 5 m^2/g. “Specific surface area” as used herein, unless otherwise defined refers to the total particle surface […]. The specific surface area of ranolazine of the present invention may be measured by a BET (Brunauer, Emmett and Teller) specific surface method, such as using a Micromeritics Gemini surface area analyzer, model 2365. Samples for analysis are degassed at 40° C. under reduced pressure and the determination of the adsorption of nitrogen gas at 77° K may be measured for relative pressures in the range of 0.05-0.3. Specific surface area and span of ranolazine of the present application may be measured by using light scattering equipment, such as, for example, a Malvern Master Sizer 2000 (helium neon laser source, ranolazine suspended in light liquid paraffin, size range: 0.01 μm to 3000 μm).

[2] = Particle size distribution by light scattering (Malvern Master Sizer 2000); details: for Particle size distribution: D10: 10th volume percentile particle size; for Particle size distribution: D50: 50th volume percentile particle size; for Particle size distribution: D90: 90th volume percentile particle size
Text: Particle size distributions of ranolazine particles may be measured by any technique known in the art. For example, particle size distributions of ranolazine particles may be measured using light scattering equipment, such as, for example, a Malvern Master Sizer 2000 from Malvern Instruments Limited, Malvern, Worcestershire, United Kingdom (helium neon laser source, ranolazine suspended in light liquid paraffin, size range: 0.01 μm to 3000 μm).

[3] = Specific surface area by BET method
Text: as §1

[4] = Bulk density (USP Test 616, method 2)
Text: In an embodiment, the present application provides ranolazine having bulk densities less than about 0.8 g/mL, or less than about 0.5 g/mL, or less than about 0.3 g/mL. Bulk density may be determined using Test 616 “Bulk Density and Tapped Density,” as in United States Pharmacopoeia 29, United States Pharmacopeial Convention, Inc., Rockville, Md., 2005, in method 2.

Structure (SMILES) | Specific surface area [1] | span [1] | Particle size distribution: D10 [2] | Particle size distribution: D50 [2] | Particle size distribution: D90 [2] | Specific surface area by Malvern method [1] | specific surface area by BET method [3] | bulk density after tapping ([4]; after tapping) | bulk density before tapping ([4]; before tapping)
COc1ccccc1OCC(O)CN1CCN(CC(=O)Nc2c(C)cccc2C)CC1 (stereo not shown) [Example 14, Ranolazine] | 0.539 m^2/g | 1.833 | 6.311 μm | 22.490 μm | 47.539 μm |  |  |  | 
COc1ccccc1OCC(O)CN1CCN(CC(=O)Nc2c(C)cccc2C)CC1 (stereo not shown) [Example 15, Ranolazine] | 0.655 m^2/g | 2.813 | 5.272 μm | 18.656 μm | 57.748 μm |  |  |  | 
COc1ccccc1OCC(O)CN1CCN(CC(=O)Nc2c(C)cccc2C)CC1 (stereo not shown) [Example 16, Ranolazine] |  | 1.817 | 5.026 μm | 18.770 μm | 39.137 μm | 1.63 m^2/g | 0.46 m^2/g |  | 
COc1ccccc1OCC(O)CN1CCN(CC(=O)Nc2c(C)cccc2C)CC1 (stereo not shown) [Example 17, Ranolazine] |  | 1.905 | 1.324 μm | 5.140 μm | 11.116 μm | 1.99 m^2/g | 2.54 m^2/g |  | 

Further lines, results first:

Specific surface area [1] | span [1] | Particle size distribution: D10 [2] | Particle size distribution: D50 [2] | Particle size distribution: D90 [2] | Specific surface area by Malvern method [1] | specific surface area by BET method [3] | bulk density after tapping ([4]; after tapping) | bulk density before tapping ([4]; before tapping) | Structure (SMILES)
0.705 m^2/g | 1.611 | 4.420 μm | 16.147 μm | 30.439 μm |  |  | 0.477 g/mL | 0.353 g/mL | COc1ccccc1OCC(O)CN1CCN(CC(=O)Nc2c(C)cccc2C)CC1 (stereo not shown) [Example 18, Ranolazine]
0.291 m^2/g | 1.823 | 13.262 μm | 41.574 μm | 89.060 μm |  |  |  |  | COc1ccccc1OCC(O)CN1CCN(CC(=O)Nc2c(C)cccc2C)CC1 (stereo not shown) [Example 19, Ranolazine]
